# Legend:
# Experiment in all cases: Kinase profiling (radioactive filter binding)
# Assay type in all cases: biochemical
# Conditions in all cases: 1 uM compound
# ASK1 = ASK1 (Homo sapiens, UniProt Q99683)
# Description: (§1) 3A5 and 5E4 were sent to the International Centre for Kinase Profiling at the MRC Protein Phosphorylation and Ubiquitylation Unit for profiling (as described in ref ([17])). Compounds were profiled against 140 kinases using a radioactive ([^33P]ATP) filter binding assay at a concentration of 1 μM. Results were obtained as inhibition of kinase activity and are listed in Supplementary Table 2.
# ZAP70 = ZAP70 (Homo sapiens, UniProt P43403)
# Description: as §1
# CK1δ = CK1δ (Homo sapiens, UniProt P48730)
# Description: as §1
# PKBa = PKBa (Homo sapiens, UniProt P31749)
# Description: as §1
# SIK3 = SIK3 (Homo sapiens, UniProt Q9Y2K2)
# Description: as §1
# CDK9-Cyclin T1 = CDK9-Cyclin T1 (Homo sapiens, UniProt P50750)
# Description: as §1
# SIK2 = SIK2 (Homo sapiens, UniProt Q9H0K1)
# Description: as §1
# EPH-B3 = EPH-B3 (Homo sapiens, UniProt P54753)
# Chain of EPH-B3 (P54753 34-998): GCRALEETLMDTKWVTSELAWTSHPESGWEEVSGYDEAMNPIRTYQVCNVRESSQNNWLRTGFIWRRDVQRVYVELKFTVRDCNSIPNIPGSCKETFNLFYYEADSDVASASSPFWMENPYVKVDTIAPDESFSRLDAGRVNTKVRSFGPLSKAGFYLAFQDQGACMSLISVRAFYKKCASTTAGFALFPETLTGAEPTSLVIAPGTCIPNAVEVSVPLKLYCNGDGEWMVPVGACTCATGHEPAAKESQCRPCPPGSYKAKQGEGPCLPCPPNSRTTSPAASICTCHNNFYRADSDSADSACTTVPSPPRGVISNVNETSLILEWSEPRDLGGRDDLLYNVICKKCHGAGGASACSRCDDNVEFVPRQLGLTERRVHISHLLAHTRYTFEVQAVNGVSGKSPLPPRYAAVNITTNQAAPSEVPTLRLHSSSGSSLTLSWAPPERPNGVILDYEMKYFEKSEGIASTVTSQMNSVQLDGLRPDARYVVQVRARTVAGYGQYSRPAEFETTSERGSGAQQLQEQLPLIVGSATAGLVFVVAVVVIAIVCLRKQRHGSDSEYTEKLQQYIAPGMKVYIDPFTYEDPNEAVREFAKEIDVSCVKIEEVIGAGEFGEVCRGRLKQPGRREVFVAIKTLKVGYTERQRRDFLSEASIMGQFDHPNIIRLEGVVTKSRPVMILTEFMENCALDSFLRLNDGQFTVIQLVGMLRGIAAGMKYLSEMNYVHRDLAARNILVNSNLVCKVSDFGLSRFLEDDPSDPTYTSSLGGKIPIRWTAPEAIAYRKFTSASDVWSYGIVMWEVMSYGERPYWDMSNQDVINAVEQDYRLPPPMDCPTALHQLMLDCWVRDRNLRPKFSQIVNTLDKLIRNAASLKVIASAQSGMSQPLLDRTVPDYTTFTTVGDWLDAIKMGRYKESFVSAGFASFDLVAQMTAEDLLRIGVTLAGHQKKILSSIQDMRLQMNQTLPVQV
# Description: as §1
# MKK6 = MKK6 (Homo sapiens, UniProt P52564)
# Description: as §1
# MST2 = MST2 (Homo sapiens, UniProt Q13188)
# Description: as §1
# MARK3 = MARK3 (Homo sapiens, UniProt P27448)
# Description: as §1
# NEK6 = NEK6 (Homo sapiens, UniProt Q9HC98)
# Description: as §1
# MAP4K3 = MAP4K3 (Homo sapiens, UniProt Q8IVH8)
# Chain of MAP4K3 (Q8IVH8 whole entry): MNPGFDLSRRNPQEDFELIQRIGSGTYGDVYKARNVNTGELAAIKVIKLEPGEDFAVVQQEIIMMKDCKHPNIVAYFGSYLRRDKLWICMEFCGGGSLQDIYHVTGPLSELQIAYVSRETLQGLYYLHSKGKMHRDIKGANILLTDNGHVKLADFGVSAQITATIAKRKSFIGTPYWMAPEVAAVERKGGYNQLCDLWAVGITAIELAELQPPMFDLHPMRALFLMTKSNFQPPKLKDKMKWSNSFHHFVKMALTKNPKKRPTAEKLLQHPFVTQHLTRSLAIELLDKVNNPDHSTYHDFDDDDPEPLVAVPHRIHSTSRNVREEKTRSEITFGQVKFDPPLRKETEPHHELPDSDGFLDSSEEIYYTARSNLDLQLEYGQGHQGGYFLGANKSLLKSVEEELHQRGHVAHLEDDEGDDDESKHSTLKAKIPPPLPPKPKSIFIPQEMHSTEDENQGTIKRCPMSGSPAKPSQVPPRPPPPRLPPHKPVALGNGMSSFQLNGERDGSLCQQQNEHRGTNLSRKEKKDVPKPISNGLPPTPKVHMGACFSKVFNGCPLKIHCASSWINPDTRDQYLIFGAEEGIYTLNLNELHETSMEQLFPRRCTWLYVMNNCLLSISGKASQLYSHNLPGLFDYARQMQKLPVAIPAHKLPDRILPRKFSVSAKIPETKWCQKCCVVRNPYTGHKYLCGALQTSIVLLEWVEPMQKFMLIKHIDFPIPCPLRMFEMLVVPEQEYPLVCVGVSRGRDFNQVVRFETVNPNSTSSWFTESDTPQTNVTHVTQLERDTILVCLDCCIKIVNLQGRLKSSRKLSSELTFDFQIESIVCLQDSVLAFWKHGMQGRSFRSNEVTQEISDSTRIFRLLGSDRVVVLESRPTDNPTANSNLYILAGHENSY
# Description: as §1
# TAO1 = TAO1 (Homo sapiens, UniProt Q7L7X3)
# Description: as §1
# MAPKAP-K3 = MAPKAP-K3 (Homo sapiens, UniProt Q16644)
# Description: as §1
# PIM3 = PIM3 (Homo sapiens, UniProt Q86V86)
# Description: as §1
# RSK1 = RSK1 (Homo sapiens, UniProt Q15418)
# Description: as §1
# CK2 = CK2 (Homo sapiens, UniProt P68400)
# Chain of CK2 (P68400 whole entry): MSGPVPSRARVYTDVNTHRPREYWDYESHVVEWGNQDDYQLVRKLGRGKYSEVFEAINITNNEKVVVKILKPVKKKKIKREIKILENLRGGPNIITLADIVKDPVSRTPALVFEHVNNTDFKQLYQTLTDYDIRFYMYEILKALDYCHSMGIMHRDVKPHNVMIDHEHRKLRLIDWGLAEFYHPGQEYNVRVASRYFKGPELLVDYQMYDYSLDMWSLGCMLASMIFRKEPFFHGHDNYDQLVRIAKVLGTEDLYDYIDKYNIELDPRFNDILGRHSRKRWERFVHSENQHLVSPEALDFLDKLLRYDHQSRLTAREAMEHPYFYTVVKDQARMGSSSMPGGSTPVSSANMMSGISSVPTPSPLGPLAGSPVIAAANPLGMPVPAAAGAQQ
# Description: as §1
# EPH-B4 = EPH-B4 (Homo sapiens, UniProt P54760)
# Description: as §1
# OSR1 = OSR1 (Homo sapiens, UniProt O95747)
# Description: as §1
# IRAK4 = IRAK4 (Homo sapiens, UniProt Q9NWZ3)
# Chain of IRAK4 (Q9NWZ3 whole entry): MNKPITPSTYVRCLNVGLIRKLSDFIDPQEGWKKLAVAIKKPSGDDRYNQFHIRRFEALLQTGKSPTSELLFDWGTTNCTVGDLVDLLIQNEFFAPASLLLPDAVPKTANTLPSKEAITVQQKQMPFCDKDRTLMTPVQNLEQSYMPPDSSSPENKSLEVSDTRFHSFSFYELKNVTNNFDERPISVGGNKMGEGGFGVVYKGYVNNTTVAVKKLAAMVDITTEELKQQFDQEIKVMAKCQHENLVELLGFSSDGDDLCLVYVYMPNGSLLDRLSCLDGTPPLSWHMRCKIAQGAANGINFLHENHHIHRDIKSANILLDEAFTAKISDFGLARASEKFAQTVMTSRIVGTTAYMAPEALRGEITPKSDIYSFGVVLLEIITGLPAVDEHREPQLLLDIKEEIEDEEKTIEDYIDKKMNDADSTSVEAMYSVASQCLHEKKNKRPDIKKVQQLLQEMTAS
# Description: as §1
# MNK1 = MNK1 (Homo sapiens, UniProt Q9BUB5)
# Description: as §1
# EPH-A4 = EPH-A4 (Homo sapiens, UniProt P54764)
# Description: as §1
# PIM1 = PIM1 (Homo sapiens, UniProt P11309)
# Description: as §1
# BTK = BTK (Homo sapiens, UniProt Q06187)
# Description: as §1
# IKKb = IKKb (Homo sapiens, UniProt O14920)
# Description: as §1
# TSSK1 = TSSK1 (Homo sapiens, UniProt Q9BXA7)
# Description: as §1
# TTBK2 = TTBK2 (Homo sapiens, UniProt Q6IQ55)
# Description: as §1
# MAP4K5 = MAP4K5 (Homo sapiens, UniProt Q9Y4K4)
# Description: as §1
# p38a MAPK = p38a MAPK (Homo sapiens, UniProt Q16539)
# Description: as §1
# CK1γ2 = CK1γ2 (Homo sapiens, UniProt P78368)
# Description: as §1
# Src = Src (Homo sapiens, UniProt P12931)
# Description: as §1
# WNK1 = WNK1 (Homo sapiens, UniProt Q9H4A3)
# Description: as §1
# ULK2 = ULK2 (Homo sapiens, UniProt Q8IYT8)
# Description: as §1
# HIPK1 = HIPK1 (Homo sapiens, UniProt Q86Z02)
# Description: as §1
# MARK1 = MARK1 (Homo sapiens, UniProt Q9P0L2)
# Chain of MARK1 (Q9P0L2 whole entry): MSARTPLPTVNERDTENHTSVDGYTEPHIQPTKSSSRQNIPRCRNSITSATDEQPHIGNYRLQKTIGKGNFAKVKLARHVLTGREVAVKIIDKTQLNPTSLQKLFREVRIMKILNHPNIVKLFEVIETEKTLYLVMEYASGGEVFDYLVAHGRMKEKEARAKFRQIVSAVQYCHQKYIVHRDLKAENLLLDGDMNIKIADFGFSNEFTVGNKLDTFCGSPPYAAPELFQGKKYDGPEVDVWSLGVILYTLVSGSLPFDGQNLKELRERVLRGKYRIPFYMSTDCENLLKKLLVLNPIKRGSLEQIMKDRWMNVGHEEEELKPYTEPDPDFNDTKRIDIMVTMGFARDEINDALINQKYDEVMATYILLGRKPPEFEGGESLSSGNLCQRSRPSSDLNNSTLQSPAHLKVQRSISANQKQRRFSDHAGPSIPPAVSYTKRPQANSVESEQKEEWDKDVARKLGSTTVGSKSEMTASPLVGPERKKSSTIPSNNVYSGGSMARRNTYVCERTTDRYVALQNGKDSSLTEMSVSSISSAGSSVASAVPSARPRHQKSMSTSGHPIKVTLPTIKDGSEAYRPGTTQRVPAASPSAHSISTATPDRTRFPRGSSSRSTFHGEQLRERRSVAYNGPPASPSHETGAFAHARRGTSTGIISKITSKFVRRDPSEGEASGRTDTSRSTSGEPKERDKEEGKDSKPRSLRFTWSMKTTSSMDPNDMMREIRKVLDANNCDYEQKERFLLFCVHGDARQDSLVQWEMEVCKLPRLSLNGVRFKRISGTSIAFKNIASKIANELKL
# Description: as §1
# TBK1 = TBK1 (Homo sapiens, UniProt Q9UHD2)
# Description: as §1
# EPH-A2 = EPH-A2 (Homo sapiens, UniProt P29317)
# Chain of EPH-A2 (P29317 24-976): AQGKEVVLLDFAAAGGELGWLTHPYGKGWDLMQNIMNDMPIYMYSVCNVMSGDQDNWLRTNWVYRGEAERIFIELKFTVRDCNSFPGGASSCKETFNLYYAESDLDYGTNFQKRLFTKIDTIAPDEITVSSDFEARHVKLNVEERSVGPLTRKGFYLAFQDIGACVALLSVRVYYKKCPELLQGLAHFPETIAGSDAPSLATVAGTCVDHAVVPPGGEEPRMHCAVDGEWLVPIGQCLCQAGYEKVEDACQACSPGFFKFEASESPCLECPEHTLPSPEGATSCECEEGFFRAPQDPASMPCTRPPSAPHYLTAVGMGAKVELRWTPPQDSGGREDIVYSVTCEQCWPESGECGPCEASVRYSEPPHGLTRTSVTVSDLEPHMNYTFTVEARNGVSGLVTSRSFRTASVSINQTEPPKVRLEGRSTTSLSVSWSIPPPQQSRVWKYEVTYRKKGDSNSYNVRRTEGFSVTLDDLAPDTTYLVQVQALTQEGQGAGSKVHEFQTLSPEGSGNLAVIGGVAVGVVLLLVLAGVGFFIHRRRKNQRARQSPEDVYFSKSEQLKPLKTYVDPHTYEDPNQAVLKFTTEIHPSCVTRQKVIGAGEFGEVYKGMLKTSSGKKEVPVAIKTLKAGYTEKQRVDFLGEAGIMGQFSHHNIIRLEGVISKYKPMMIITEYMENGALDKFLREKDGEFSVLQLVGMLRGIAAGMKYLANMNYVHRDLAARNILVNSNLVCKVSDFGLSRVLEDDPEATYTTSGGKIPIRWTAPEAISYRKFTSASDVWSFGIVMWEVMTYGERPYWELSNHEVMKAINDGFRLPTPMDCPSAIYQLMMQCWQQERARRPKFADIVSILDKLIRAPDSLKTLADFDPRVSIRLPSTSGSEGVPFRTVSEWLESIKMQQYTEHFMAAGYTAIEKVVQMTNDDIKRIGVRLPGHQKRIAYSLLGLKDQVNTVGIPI
# Description: as §1
# MST3 = MST3 (Homo sapiens, UniProt Q9Y6E0)
# Description: as §1
# ERK1 = ERK1 (Homo sapiens, UniProt P27361)
# Chain of ERK1 (P27361 whole entry): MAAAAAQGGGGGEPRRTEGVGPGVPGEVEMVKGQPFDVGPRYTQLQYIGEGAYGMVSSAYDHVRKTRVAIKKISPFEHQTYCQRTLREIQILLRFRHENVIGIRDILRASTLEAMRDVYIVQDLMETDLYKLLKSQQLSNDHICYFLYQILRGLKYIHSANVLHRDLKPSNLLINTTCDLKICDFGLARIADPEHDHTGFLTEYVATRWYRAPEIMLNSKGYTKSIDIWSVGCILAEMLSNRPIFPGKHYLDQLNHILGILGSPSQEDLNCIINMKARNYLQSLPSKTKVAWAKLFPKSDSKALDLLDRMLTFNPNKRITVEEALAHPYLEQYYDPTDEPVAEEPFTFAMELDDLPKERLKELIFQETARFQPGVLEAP
# Description: as §1
# PINK = PINK (Tribolium castaneum, UniProt D6WMX4)
# Description: as §1
# ERK2 = ERK2 (Homo sapiens, UniProt P28482)
# Description: as §1
smiles,measurement,setting,value
"Cc1nc2ccc3sc(NC(=O)c4ccc5ncsc5c4)nc3c2s1 [3A5, N-(2-methyl[1,3]thiazolo[5,4-e][1,3]benzothiazol-7-yl)-1,3-benzothiazole-6-carboxamide]",ASK1 activity in kinase profiling,ASK1,59
same,ZAP70 activity in kinase profiling,ZAP70,109
same,CK1δ activity in kinase profiling,CK1δ,34
same,activity at 1 µM,PKBa,123%
same,SIK3 activity in kinase profiling,SIK3,84
same,CDK9-Cyclin T1 activity in kinase profiling,CDK9-Cyclin T1,87
same,SIK2 activity in kinase profiling,SIK2,91
same,EPH-B3 activity in kinase profiling,EPH-B3,89
same,MKK6 activity in kinase profiling,MKK6,119
same,MST2 activity in kinase profiling,MST2,119
same,MARK3 activity in kinase profiling,MARK3,91
same,NEK6 activity in kinase profiling,NEK6,104
same,MAP4K3 activity in kinase profiling,MAP4K3,125
same,TAO1 activity in kinase profiling,TAO1,94
same,MAPKAP-K3 activity in kinase profiling,MAPKAP-K3,81
same,PIM3 activity in kinase profiling,PIM3,88
same,RSK1 activity in kinase profiling,RSK1,83
same,CK2 activity in kinase profiling,CK2,105
same,EPH-B4 activity in kinase profiling,EPH-B4,103
same,OSR1 activity in kinase profiling,OSR1,101
same,IRAK4 activity in kinase profiling,IRAK4,46
same,MNK1 activity in kinase profiling,MNK1,109
same,EPH-A4 activity in kinase profiling,EPH-A4,120
same,PIM1 activity in kinase profiling,PIM1,71
same,BTK activity in kinase profiling,BTK,106
same,IKKb activity in kinase profiling,IKKb,85
same,TSSK1 activity in kinase profiling,TSSK1,81
same,TTBK2 activity in kinase profiling,TTBK2,108
same,MAP4K5 activity in kinase profiling,MAP4K5,91
same,p38a MAPK activity in kinase profiling,p38a MAPK,94
same,CK1γ2 activity in kinase profiling,CK1γ2,22
same,Src activity in kinase profiling,Src,89
same,WNK1 activity in kinase profiling,WNK1,99
same,ULK2 activity in kinase profiling,ULK2,92
same,HIPK1 activity in kinase profiling,HIPK1,105
same,MARK1 activity in kinase profiling,MARK1,103
same,TBK1 activity in kinase profiling,TBK1,83
same,EPH-A2 activity in kinase profiling,EPH-A2,134
same,MST3 activity in kinase profiling,MST3,100
same,ERK1 activity in kinase profiling,ERK1,102
same,PINK activity in kinase profiling,PINK,115
same,ERK2 activity in kinase profiling,ERK2,109
"CSc1nc2ccc3nc(NC(=O)c4ccco4)sc3c2s1 [5E4, N-[7-(methylsulfanyl)[1,3]thiazolo[4,5-g][1,3]benzothiazol-2-yl]-2-furamide]",ASK1 activity in kinase profiling,ASK1,84
same,ZAP70 activity in kinase profiling,ZAP70,93
same,CK1δ activity in kinase profiling,CK1δ,94
same,activity at 1 µM,PKBa,103%
same,SIK3 activity in kinase profiling,SIK3,79
same,CDK9-Cyclin T1 activity in kinase profiling,CDK9-Cyclin T1,88
same,SIK2 activity in kinase profiling,SIK2,94
same,EPH-B3 activity in kinase profiling,EPH-B3,110
same,MKK6 activity in kinase profiling,MKK6,101
same,MST2 activity in kinase profiling,MST2,129
same,MARK3 activity in kinase profiling,MARK3,83
same,NEK6 activity in kinase profiling,NEK6,91
same,MAP4K3 activity in kinase profiling,MAP4K3,121
same,TAO1 activity in kinase profiling,TAO1,99
same,MAPKAP-K3 activity in kinase profiling,MAPKAP-K3,86
same,PIM3 activity in kinase profiling,PIM3,95
same,RSK1 activity in kinase profiling,RSK1,92
same,CK2 activity in kinase profiling,CK2,77
same,EPH-B4 activity in kinase profiling,EPH-B4,84
same,OSR1 activity in kinase profiling,OSR1,111
same,IRAK4 activity in kinase profiling,IRAK4,50
same,MNK1 activity in kinase profiling,MNK1,99
same,EPH-A4 activity in kinase profiling,EPH-A4,112
same,PIM1 activity in kinase profiling,PIM1,96
same,BTK activity in kinase profiling,BTK,105
same,IKKb activity in kinase profiling,IKKb,90
same,TSSK1 activity in kinase profiling,TSSK1,81
same,TTBK2 activity in kinase profiling,TTBK2,103
same,MAP4K5 activity in kinase profiling,MAP4K5,89
same,p38a MAPK activity in kinase profiling,p38a MAPK,96
same,CK1γ2 activity in kinase profiling,CK1γ2,88
same,Src activity in kinase profiling,Src,79
same,WNK1 activity in kinase profiling,WNK1,90
same,ULK2 activity in kinase profiling,ULK2,81
same,HIPK1 activity in kinase profiling,HIPK1,25
same,MARK1 activity in kinase profiling,MARK1,107
same,TBK1 activity in kinase profiling,TBK1,83
same,EPH-A2 activity in kinase profiling,EPH-A2,162
same,MST3 activity in kinase profiling,MST3,99
same,ERK1 activity in kinase profiling,ERK1,104
same,PINK activity in kinase profiling,PINK,118
same,ERK2 activity in kinase profiling,ERK2,112
